Assay results taken from PMC10786919, “Design-rules for stapled peptides with in vivo activity and their application to Mdm2/X antagonists” (Nature Communications, 2024).
≈ marks a conversion by molar mass, not a printed value. Positions of bridges follow the written chain, without caps; N, C: chain ends. Non-standard residues stand in square brackets, D forms with d. Residues, ends and D or L forms follow the SMILES beside them. Lys(N3) = [N-]=[N+]=NCCCC[C@H](N)C(=O)O; R8 = C=CCCCCCC[C@@](C)(N)C(=O)O; Cba = N[C@@H](CC1CCC1)C(=O)O; S5 = C=CCCC[C@](C)(N)C(=O)O; βAla = NCCC(=O)O; Sar = CNCC(=O)O

Columns and labels:
[1] = Lactate dehydrogenase (LDH) release assay; type: cell-based; details: LDH: Cytotoxicity assay: EC50
Summary of the method: (§1)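 A p53 β-lactamase reporter HCT116 line, 8000 cells per well, is exposed to test compounds at 0.5% final DMSO and scored for LDH leakage.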

HCT116 cells = assay: Lactate dehydrogenase (LDH) release assay; type: cell-based
Summary of the method: as §1

[2] = Solubility assay (kinetic solubility, PBS pH 7); type: physicochemical; details: pH 7, PBS; for solubility kinetic: pH 7, aqueous buffer, kinetic from dmso stock, read-out: Solubility
Summary of the method: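 Quantitation uses an external standard at 100 µM, prepared from 10 mM stock in acetonitrile:methanol:DMSO (10:80:10). Solubility (µM) = (peak area of sample ÷ peak area of standard) × standard concentration.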

EPSA = type: physicochemical
[3] = Experimental LogD (partition coefficient); details: for logD: not stated, Partition Coeff LogD
Ca Ski cell line = details: 72 h
Summary of the method: (§2)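 Compound dilution series (10 points, 3-fold, 10 mM top stock in DMSO) tested on overnight-plated Ca Ski cells in RPMI1640/10% FBS and on blasticidin-selected p53RE-bla HCT-116 cells in McCoy's 5A; read-out was CellTiter-Glo 2.0 luminescence after room-temperature equilibration.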

[4] = tested on: CellSensor p53RE-bla HCT-116 Cell Line; details: 72 h
Summary of the method: as §2

in vitro = details: Nanoclick permeability assay EC50
Summary of the method: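 Azido-peptide permeability was read as loss of NanoBRET signal (donor 450 nm, acceptor 610 nm) after adding NanoBret618-azide at 10 μM final.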

Row | Structure (SMILES) | EC50 [1] | LDH: Cytotoxicity assay: % Effect (HCT116 cells) | solubility kinetic [2] | EPSA (EPSA; EPSA) | logD [3] | EPSA (EPSA) | Solubility [2] | Partition Coeff LogD [3] | EPSA (physchem) | EC50 (Ca Ski cell line) | EC50 [4] | cell entry EC50 (in vitro)
1 | CC(=O)N[C@@H](CCCNC(=N)N)C(=O)N[C@@H](CCCNC(=N)N)C(=O)NCCCCCC(=O)N[C@@H](CC(C)C)C(=O)N[C@H](C(=O)N[C@@H](Cc1ccccc1)C(=O)N[C@]1(C)CCCCCCC=CCCC[C@@](C)(C(=O)N[C@@H](CO)C(=O)N[C@@H](C)C(=O)N[C@@H](C)C(N)=O)NC(=O)[C@H](CC2CCC2)NC(=O)[C@H](CCC(N)=O)NC(=O)[C@H](C)NC(=O)[C@H](Cc2c[nH]c3ccccc23)NC(=O)[C@H](Cc2ccc(O)cc2)NC(=O)[C@H](CCC(=O)O)NC1=O)[C@@H](C)O [MP-003] | 31 µM | 46.5% | 6 µM (≈ 13 µg/mL) | 207 A^2 | 2.51 |  |  |  |  |  |  | 
2 | CC(=O)N[C@@H](CCCNC(=N)N)C(=O)N[C@@H](CCCNC(=N)N)C(=O)NCCC(=O)N[C@@H](CCCCN=[N+]=[N-])C(=O)N[C@@H](CC(C)C)C(=O)N[C@H](C(=O)N[C@@H](Cc1ccccc1)C(=O)N[C@]1(C)CCCCCCC=CCCC[C@@](C)(C(=O)N[C@@H](CO)C(=O)N[C@@H](C)C(=O)N[C@@H](C)C(N)=O)NC(=O)[C@H](CC2CCC2)NC(=O)[C@H](CCC(N)=O)NC(=O)[C@H](C)NC(=O)[C@H](Cc2c[nH]c3ccccc23)NC(=O)[C@H](Cc2ccc(O)cc2)NC(=O)[C@H](CCC(=O)O)NC1=O)[C@@H](C)O [MP-006] | 26.2 µM | 47.04% | 2 µM (≈ 4.57 µg/mL) | 226 A^2 | 2.72 |  |  |  |  |  |  | 
3 | CC(=O)N[C@@H](CCCCN=[N+]=[N-])C(=O)NCC(=O)N[C@@H](CO)C(=O)NCC(=O)N[C@H](C(=O)N[C@@H](CO)C(=O)N[C@@H](Cc1ccccc1)C(=O)N[C@]1(C)CCCCCCC=CCCC[C@@](C)(C(=O)N[C@@H](CCC(=O)O)C(N)=O)NC(=O)[C@H](CC(C)C)NC(=O)[C@H](CC(C)C)NC(=O)[C@H](C)NC(=O)[C@H](Cc2c[nH]c3ccccc23)NC(=O)[C@H](Cc2ccc(O)cc2)NC(=O)[C@H](CCC(=O)O)NC1=O)[C@@H](C)O [MP-010] | > 50 µM | 19.63% | 23 µM (≈ 44.8 µg/mL) |  | 2.07 | Poorly Behaved |  |  |  |  |  | 
4 | CC(=O)N[C@@H](CC(C)C)C(=O)N[C@H](C(=O)N[C@@H](Cc1ccccc1)C(=O)NC(C)(C)C(=O)N[C@@H](CCC(=O)O)C(=O)N[C@@H](Cc1ccc(O)cc1)C(=O)N[C@H](Cc1c[nH]c2ccccc12)C(=O)N[C@@H](C)C(=O)N[C@@H](CCC(N)=O)C(=O)N[C@@H](CC1CCC1)C(=O)NC(C)(C)C(=O)N[C@@H](CO)C(=O)N[C@@H](C)C(=O)N[C@@H](C)C(N)=O)[C@@H](C)O [MP-254] | > 50 µM |  | 92.5 µM (≈ 150 µg/mL) | 188 A^2 | 2.08 |  |  |  |  |  |  | 
5 | CC(=O)N[C@@H](CC(C)C)C(=O)N[C@H](C(=O)N[C@@H](Cc1ccccc1)C(=O)NC(C)(C)C(=O)N[C@@H](CCC(=O)O)C(=O)N[C@@H](Cc1ccc(O)cc1)C(=O)N[C@H](Cc1c[nH]c2ccccc12)C(=O)N[C@@H](CCC(N)=O)C(=O)N[C@@H](CC(C)C)C(=O)N[C@@H](CC1CCC1)C(=O)NC(C)(C)C(=O)N[C@@H](CO)C(=O)N[C@@H](C)C(=O)N[C@@H](C)C(N)=O)[C@@H](C)O [MP-256] | > 50 µM |  | 91.5 µM (≈ 152 µg/mL) | 185 A^2 | 2.18 |  |  |  |  |  |  | 
6 | CC(=O)N[C@H](C)C(=O)N[C@H](C)C(=O)N[C@H](C)C(=O)N[C@H](C)C(=O)N[C@H](C)C(=O)N[C@H](C)C(=O)N[C@H](C)C(=O)N[C@H](C)C(=O)N[C@@H](CC(C)C)C(=O)N[C@H](C(=O)N[C@@H](Cc1ccccc1)C(=O)N[C@]1(C)CCCCCCC=CCCC[C@@](C)(C(=O)N[C@@H](CO)C(=O)N[C@@H](C)C(=O)N[C@@H](C)C(N)=O)NC(=O)[C@H](CC2CCC2)NC(=O)[C@H](CCC(N)=O)NC(=O)[C@H](C)NC(=O)[C@H](Cc2c[nH]c3ccccc23)NC(=O)[C@H](Cc2ccc(O)cc2)NC(=O)[C@H](CCC(=O)O)NC1=O)[C@@H](C)O [MP-414] (Ac-[dA][dA][dA][dA][dA][dA][dA][dA]LTF[R8]EYWAQ[Cba][S5]SAA-NH2; staple 12-19) | > 50.7 µM | -4.321% | 35 µM (≈ 81 µg/mL) | 210 A^2 | 2.65 |  |  |  |  |  |  | 
7 | CC(=O)N(C)CC(=O)N(C)CC(=O)N(C)CC(=O)N(C)CC(=O)N(C)CC(=O)N(C)CC(=O)N(C)CC(=O)N(C)CC(=O)N[C@@H](CC(C)C)C(=O)N[C@H](C(=O)N[C@@H](Cc1ccccc1)C(=O)N[C@]1(C)CCCCCCC=CCCC[C@@](C)(C(=O)N[C@@H](CO)C(=O)N[C@@H](C)C(=O)N[C@@H](C)C(N)=O)NC(=O)[C@H](CC2CCC2)NC(=O)[C@H](CCC(N)=O)NC(=O)[C@H](C)NC(=O)[C@H](Cc2c[nH]c3ccccc23)NC(=O)[C@H](Cc2ccc(O)cc2)NC(=O)[C@H](CCC(=O)O)NC1=O)[C@@H](C)O [MP-623] (Ac-[Sar][Sar][Sar][Sar][Sar][Sar][Sar][Sar]LTF[R8]EYWAQ[Cba][S5]SAA-NH2; staple 12-19) | > 50.7 µM | 3.314% | 150 µM (≈ 347 µg/mL) | 200 A^2 | 2.41 |  |  |  |  |  |  | 
8 | CC(=O)N[C@@H](CCCNC(=N)N)C(=O)NCCCCCC(=O)N[C@@H](CC(C)C)C(=O)N[C@H](C(=O)N[C@@H](Cc1ccccc1)C(=O)N[C@]1(C)CCCCCCC=CCCC[C@@](C)(C(=O)N[C@@H](CO)C(=O)N[C@@H](C)C(=O)N[C@@H](C)C(N)=O)NC(=O)[C@H](CC2CCC2)NC(=O)[C@H](CCC(N)=O)NC(=O)[C@H](C)NC(=O)[C@H](Cc2c[nH]c3ccccc23)NC(=O)[C@H](Cc2ccc(O)cc2)NC(=O)[C@H](CCC(=O)O)NC1=O)[C@@H](C)O [MP-4001] | > 50 µM | -1.283% | 4 µM (≈ 8.06 µg/mL) | 207 A^2 | 2.64 |  |  |  |  |  |  | 
9 | CC(=O)N[C@@H](CCCNC(=N)N)C(=O)N[C@@H](CCCNC(=N)N)C(=O)NCCC(=O)N[C@@H](CC(C)C)C(=O)N[C@H](C(=O)N[C@@H](Cc1ccccc1)C(=O)N[C@]1(C)CCCCCCC=CCCC[C@@](C)(C(=O)N[C@@H](CO)C(=O)N[C@@H](C)C(=O)N[C@@H](C)C(N)=O)NC(=O)[C@H](CC2CCC2)NC(=O)[C@H](CCC(N)=O)NC(=O)[C@H](C)NC(=O)[C@H](Cc2c[nH]c3ccccc23)NC(=O)[C@H](Cc2ccc(O)cc2)NC(=O)[C@H](CCC(=O)O)NC1=O)[C@@H](C)O [MP-4002] | 37.7 µM | 50.55% | 11 µM (≈ 23.4 µg/mL) | 212 A^2 | 2.47 |  |  |  |  |  |  | 
10 | CC(=O)N[C@@H](CCCCN=[N+]=[N-])C(=O)N[C@@H](CC(C)C)C(=O)N[C@H](C(=O)N[C@@H](Cc1ccccc1)C(=O)N[C@]1(C)CCCCCCC=CCCC[C@@](C)(C(=O)N[C@@H](CCC(=O)O)C(N)=O)NC(=O)[C@H](CC2CCC2)NC(=O)[C@H](CCC(N)=O)NC(=O)[C@H](C)NC(=O)[C@H](Cc2c[nH]c3ccccc23)NC(=O)[C@H](Cc2ccc(O)cc2)NC(=O)[C@H](CCC(=O)O)NC1=O)[C@@H](C)O [MP-4008] (Ac-[Lys(N3)]LTF[R8]EYWAQ[Cba][S5]E-NH2; staple 5-12) | > 50 µM | -0.7368% | 23 µM (≈ 41.4 µg/mL) |  | 2.48 | Poorly Behaved |  |  |  |  |  | 
11 | CC(C)C[C@H](NC(=O)[C@@H](N)CCCCN=[N+]=[N-])C(=O)N[C@H](C(=O)N[C@@H](Cc1ccccc1)C(=O)N[C@]1(C)CCCCCCC=CCCC[C@@](C)(C(=O)N[C@@H](CCC(=O)O)C(N)=O)NC(=O)[C@H](CC2CCC2)NC(=O)[C@H](CCC(N)=O)NC(=O)[C@H](C)NC(=O)[C@H](Cc2c[nH]c3ccccc23)NC(=O)[C@H](Cc2ccc(O)cc2)NC(=O)[C@H](CCC(=O)O)NC1=O)[C@@H](C)O [MP-4009] (H-[Lys(N3)]LTF[R8]EYWAQ[Cba][S5]E-NH2; staple 5-12) | > 50 µM | -2.907% |  |  |  | Poorly Behaved | Poorly Behaved | Poorly Behaved |  |  |  | 
12 | CC(=O)N[C@@H](CCCCN=[N+]=[N-])C(=O)NCCC(=O)N[C@@H](CCC(=O)O)C(=O)N[C@H](C(=O)N[C@@H](Cc1ccccc1)C(=O)N[C@]1(C)CCCCCCC=CCCC[C@@](C)(C(=O)N[C@@H](CO)C(=O)N[C@@H](C)C(=O)N[C@@H](C)C(N)=O)NC(=O)[C@H](CC2CCC2)NC(=O)[C@H](CCC(N)=O)NC(=O)[C@H](CCC(=O)O)NC(=O)[C@H](Cc2c[nH]c3ccccc23)NC(=O)[C@H](Cc2ccc(O)cc2)NC(=O)[C@H](CCC(=O)O)NC1=O)[C@@H](C)O [MP-65496] (Ac-[Lys(N3)][βAla]ETF[R8]EYWEQ[Cba][S5]SAA-NH2; staple 6-13) | > 50.6 µM | 2.338% | 83.7 µM (≈ 171 µg/mL) |  | 1.98 |  |  |  | 324 A^2 | > 49.8 µM | 1.53 µM | 0.42 µM
